In patent US5750499A, “Receptor-selective somatostatin analogs” (The Salk Institute for Biological Studies, priority 1995, dated 1998):
Entries after “also recorded” stand apart in the source; their conditions may differ. Where a SMILES comes first, the peptide text is derived from it. Bridges are numbered along the chain shown (N, C = ends). Where no end group is shown, it is not given here. [ ]: non-standard residue; d: D form. The star is where a group is joined. Phe(4-CH2NHiPr) = CC(C)NCc1ccc(C[C@H](N)C(=O)O)cc1; Tyr(3-I) = N[C@@H](Cc1ccc(O)c(I)c1)C(=O)O; 125I = [125I]*

Legend:
mSSTR1 = biological target: T1, mSSTR1 (Mus musculus, UniProt P30873); assay: Inhibition of [125I-Tyr11]SRIF binding to cloned mSSTR1 (Table)
T1 construct: expressed in transfected cells; host or cells: COS and CHO cells
T1 sequence (P30873 whole entry): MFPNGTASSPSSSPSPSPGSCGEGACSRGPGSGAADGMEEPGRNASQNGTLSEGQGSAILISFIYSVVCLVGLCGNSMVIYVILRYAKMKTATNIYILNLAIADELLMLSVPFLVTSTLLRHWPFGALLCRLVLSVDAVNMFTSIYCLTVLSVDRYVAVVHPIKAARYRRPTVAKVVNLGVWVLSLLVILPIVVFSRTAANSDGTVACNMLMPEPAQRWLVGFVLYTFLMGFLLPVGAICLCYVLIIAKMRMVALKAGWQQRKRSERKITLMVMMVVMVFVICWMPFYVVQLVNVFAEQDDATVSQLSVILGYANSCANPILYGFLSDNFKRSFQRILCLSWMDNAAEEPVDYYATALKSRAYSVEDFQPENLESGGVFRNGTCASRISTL
Description: (§1) In vitro Bioassay: The effects of the various somatostatin analogs are tested in vitro for their ability to bind to isolated cloned receptors expressed on COS and CHO cells.
(§2) The molecular cloning of the genes encoding multiple somatostatin receptor subtypes permits the individual expression of these receptors in mammalian cells and the characterization of their respective pharmacological profiles.
(§3) Certain of the measurements are in progress.

mSSTR3 = biological target: T2, mSSTR3 (Mus musculus, UniProt P30935); assay: Inhibition of [125I-Tyr11]SRIF binding to cloned mSSTR3 (Table)
T2 construct: expressed in transfected cells; host or cells: COS and CHO cells
T2 sequence (P30935 whole entry): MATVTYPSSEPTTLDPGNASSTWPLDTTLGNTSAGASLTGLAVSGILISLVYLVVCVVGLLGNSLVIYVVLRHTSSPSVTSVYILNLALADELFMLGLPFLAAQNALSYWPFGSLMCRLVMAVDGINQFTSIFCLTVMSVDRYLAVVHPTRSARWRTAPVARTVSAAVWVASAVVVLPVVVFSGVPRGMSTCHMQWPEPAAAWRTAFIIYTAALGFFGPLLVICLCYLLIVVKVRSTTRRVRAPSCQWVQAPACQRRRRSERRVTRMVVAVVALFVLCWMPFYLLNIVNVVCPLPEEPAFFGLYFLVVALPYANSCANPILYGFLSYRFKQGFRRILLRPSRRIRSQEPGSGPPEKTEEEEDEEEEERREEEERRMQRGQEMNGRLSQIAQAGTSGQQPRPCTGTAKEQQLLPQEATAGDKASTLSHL
Description: as §1, §2, §3

mSSTR2 = biological target: T3, mSSTR2 (Mus musculus, UniProt P30875); assay: Inhibition of [125I-Tyr11]SRIF binding to cloned mSSTR2 (Table)
T3 construct: expressed in transfected cells; host or cells: COS and CHO cells
T3 sequence (P30875 whole entry): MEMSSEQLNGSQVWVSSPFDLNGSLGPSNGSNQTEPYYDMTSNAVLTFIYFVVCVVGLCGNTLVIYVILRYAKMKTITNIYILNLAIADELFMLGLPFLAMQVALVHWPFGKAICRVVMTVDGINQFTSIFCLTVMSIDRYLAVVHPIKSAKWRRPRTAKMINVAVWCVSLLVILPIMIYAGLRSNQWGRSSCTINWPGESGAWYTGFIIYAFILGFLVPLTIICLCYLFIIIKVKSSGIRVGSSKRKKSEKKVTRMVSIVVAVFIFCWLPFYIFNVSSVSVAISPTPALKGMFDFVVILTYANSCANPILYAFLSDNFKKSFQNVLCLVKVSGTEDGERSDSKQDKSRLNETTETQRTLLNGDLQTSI
Description: as §1, §2, §3

SSTR1 [1] = biological target: T4, SSTR1 (Homo sapiens, UniProt P30872); assay: Inhibition of [125I-Tyr11]SRIF binding to cloned human SSTR1
T4 construct: expressed in transfected cells; host or cells: COS and CHO cells
T4 sequence (P30872 whole entry): as the sequence (P30873 whole entry) above, with A25G, C26G, S32A, A385T, S389T counted along it
Description: In a typical assay, an amount of protein from the cell homogenate is placed into a small volume of an appropriate assay buffer at an appropriate pH.
(§4) Alternatively, IC50 values indicative of the concentration of a competitive ligand necessary to displace a saturation concentration of a target ligand being measured from 50% of binding sites can also be calculated in such competitive assays.
as §1, §2

SSTR1 [2] = biological target: T4, SSTR1; assay: Inhibition of binding of iodinated Peptide No. 5 to SSTR1; details: radioligand iodinated Peptide No. 5
Description: as §4
(§5) The Bmax value represents the highest number of specific sites which can be occupied at a given time, i.e. the saturation point.

[3] = test system: COS-7 cells expressing SSTR1; assay: Forskolin-stimulated cAMP formation in COS-7 cells expressing SSTR1; assay type: cell-based; details: 1 μM of Peptide No. 2
SSTR4 = biological target: T5, SSTR4 (Homo sapiens, UniProt P31391); assay: Direct binding of iodinated Peptide No. 5 to cloned SSTR4
T5 construct: expressed in transfected cells; host or cells: COS and CHO cells
T5 sequence (P31391 whole entry): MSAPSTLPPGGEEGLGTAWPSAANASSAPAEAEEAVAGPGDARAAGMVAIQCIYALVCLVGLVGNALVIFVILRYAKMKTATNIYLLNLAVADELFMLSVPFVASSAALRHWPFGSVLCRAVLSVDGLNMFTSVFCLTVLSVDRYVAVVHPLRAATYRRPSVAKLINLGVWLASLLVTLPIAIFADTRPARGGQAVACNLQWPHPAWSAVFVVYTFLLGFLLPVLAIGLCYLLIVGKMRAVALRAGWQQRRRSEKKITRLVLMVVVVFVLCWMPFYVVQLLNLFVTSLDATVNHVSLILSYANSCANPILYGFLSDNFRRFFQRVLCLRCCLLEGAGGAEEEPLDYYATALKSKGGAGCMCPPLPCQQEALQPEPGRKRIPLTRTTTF
Description: as §5

SSTR1 [4] = biological target: T4, SSTR1; assay: Direct saturation binding of iodinated Peptide No. 5 to cloned SSTR1; details: iodinated peptide as radioligand
Description: as §4, §5

SSTR3 = biological target: T6, SSTR3 (Mus musculus, UniProt P30935); assay: Direct binding of iodinated Peptide No. 5 to cloned SSTR3
T6 construct: expressed in transfected cells; host or cells: COS and CHO cells
T6 sequence (P30935 whole entry): as the sequence (P30935 whole entry) above
Description: as §5

[5] = biological target: T7, SSTR1 expressed in COS-7 cells (Homo sapiens, UniProt P30872); assay: GTPgS and pertussis toxin regulation of radioligand binding to SSTR1 expressed in COS-7 cells
T7 construct: expressed in transfected cells; host or cells: COS-7 cells
T7 sequence (P30872 whole entry): as the sequence (P30873 whole entry) above, with A25G, C26G, S32A, A385T, S389T counted along it
Description: as §5

SSTR2 = biological target: T8, SSTR2 (Mus musculus, UniProt P30875); assay: Direct binding of iodinated Peptide No. 5 to cloned SSTR2
T8 construct: expressed in transfected cells; host or cells: COS and CHO cells
T8 sequence (P30875 whole entry): as the sequence (P30875 whole entry) above
Description: as §5

SSTR5 = biological target: T9, SSTR5 (Rattus norvegicus, UniProt P30938); assay: Direct binding of iodinated Peptide No. 5 to cloned SSTR5
T9 construct: expressed in transfected cells; host or cells: COS and CHO cells
T9 sequence (P30938 1-363): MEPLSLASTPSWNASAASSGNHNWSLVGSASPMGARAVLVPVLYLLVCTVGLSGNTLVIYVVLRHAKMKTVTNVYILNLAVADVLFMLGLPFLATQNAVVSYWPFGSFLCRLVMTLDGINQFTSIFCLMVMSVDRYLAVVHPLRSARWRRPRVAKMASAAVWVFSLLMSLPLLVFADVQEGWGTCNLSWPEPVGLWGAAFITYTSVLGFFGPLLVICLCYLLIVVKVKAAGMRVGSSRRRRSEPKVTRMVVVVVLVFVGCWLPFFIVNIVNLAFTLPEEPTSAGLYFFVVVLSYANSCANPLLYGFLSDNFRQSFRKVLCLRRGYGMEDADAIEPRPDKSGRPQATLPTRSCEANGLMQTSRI
Description: as §5

Row | Compound | IC50 (mSSTR1) [nM] | IC50 (mSSTR3) [nM] | IC50 (mSSTR2) [nM] | also measured
1 | CC(C)NCc1ccc(C[C@@H]2NC(=O)[C@@H](Cc3c[nH]c4ccccc34)NC(=O)[C@H](Cc3ccccc3)NC(=O)[C@H](Cc3ccccc3)NC(=O)[C@H](CCCCN)NC(=O)[C@@H](N)CSSC[C@@H](C(=O)O)NC(=O)[C@H](CO)NC(=O)[C@H]([C@@H](C)O)NC(=O)[C@H](Cc3ccccc3)NC(=O)[C@H]([C@@H](C)O)NC2=O)cc1 [Peptide No. 2, des-AA^1,2,5 [D-Trp^8, IAmp^9]-SRIF] (H-CKFF[dW][Phe(4-CH2NHiPr)]TFTSC-OH; disulfide 1-11) | 1 | 1000 | 1100 | IC50 (SSTR1 [1]): 0.0018 ± 0.0007 µM
2 | CC(C)NCc1ccc(C[C@@H]2NC(=O)[C@@H](Cc3c[nH]c4ccccc34)NC(=O)[C@H](Cc3ccccc3)NC(=O)[C@H](Cc3ccccc3)NC(=O)[C@H](CCCCN)NC(=O)[C@@H](N)CSSC[C@@H](C(=O)O)NC(=O)[C@@H](CO)NC(=O)[C@H]([C@@H](C)O)NC(=O)[C@H](Cc3ccccc3)NC(=O)[C@H]([C@@H](C)O)NC2=O)cc1 [Peptide No. 4, des-AA^1,2,5-[D-Trp^8, IAmp^9, D-Ser^13]SRIF] (H-CKFF[dW][Phe(4-CH2NHiPr)]TFT[dS]C-OH; disulfide 1-11) | 1.25 | 178 | > 1000 | IC50 (SSTR1 [2]): 0.0053 ± 0.0008 µM
3 | CC(C)NCc1ccc(C[C@@H]2NC(=O)[C@@H](Cc3c[nH]c4ccccc34)NC(=O)[C@H](Cc3ccccc3)NC(=O)[C@H](Cc3ccccc3)NC(=O)[C@H](CCCCN)NC(=O)[C@@H](NC(=O)[C@@H](N)Cc3ccc(O)cc3)CSSC[C@@H](C(=O)O)NC(=O)[C@H](CO)NC(=O)[C@H]([C@@H](C)O)NC(=O)[C@H](Cc3ccccc3)NC(=O)[C@H]([C@@H](C)O)NC2=O)cc1 [Peptide No. 5] (H-YCKFF[dW][Phe(4-CH2NHiPr)]TFTSC-OH; disulfide 2-12) | 0.8 | > 100 | > 100 | 
4 | CC(C)NCc1ccc(C[C@@H]2NC(=O)[C@@H](Cc3c[nH]c4ccccc34)NC(=O)[C@H](Cc3ccccc3)NC(=O)[C@H](Cc3ccccc3)NC(=O)[C@H](CC(N)=O)NC(=O)[C@H](CCCCN)NC(=O)[C@@H](N)CSSC[C@@H](C(=O)O)NC(=O)[C@H](CO)NC(=O)[C@H]([C@@H](C)O)NC(=O)[C@H](Cc3ccccc3)NC(=O)[C@H]([C@@H](C)O)NC2=O)cc1 [Peptide No. 9] (H-CKNFF[dW][Phe(4-CH2NHiPr)]TFTSC-OH; disulfide 1-12) | 54 | > 1000 | > 1000 | 
5 | C[C@H](N)C(=O)NCC(=O)N[C@H]1CSSC[C@@H](C(=O)O)NC(=O)[C@H](CO)NC(=O)[C@H]([C@@H](C)O)NC(=O)[C@H](Cc2ccccc2)NC(=O)[C@H]([C@@H](C)O)NC(=O)[C@H](CCCCN)NC(=O)[C@H](Cc2c[nH]c3ccccc23)NC(=O)[C@H](Cc2ccccc2)NC(=O)[C@H](Cc2ccccc2)NC(=O)[C@H](CC(N)=O)NC(=O)[C@H](CCCCN)NC1=O [SRIF, somatostatin-14] |  |  |  | inhibition of forskolin-stimulated cAMP formation [3]: Neither 1 μM of Peptide No. 2, nor SRIF itself, inhibits forskolin-stimulated cAMP formation
6 | CC(C)NCc1ccc(C[C@@H]2NC(=O)[C@@H](Cc3c[nH]c4ccccc34)NC(=O)[C@H](Cc3ccccc3)NC(=O)[C@H](Cc3ccccc3)NC(=O)[C@@H](N)CSSC[C@@H](C(=O)O)NC(=O)[C@H](Cc3ccccc3)NC(=O)[C@H]([C@@H](C)O)NC2=O)cc1 [[IAmp^9]ODT8, [IAmp^5]-ODT8] (H-CFF[dW][Phe(4-CH2NHiPr)]TFC-OH; disulfide 1-8) | 160 | 500 | > 1000 | 
7 | CC(C)NCc1ccc(C[C@@H]2NC(=O)[C@@H](Cc3c[nH]c4ccccc34)NC(=O)[C@H](Cc3ccccc3)NC(=O)[C@H](Cc3ccccc3)NC(=O)[C@H](CCCCN)NC(=O)[C@@H](NC(=O)[C@@H](N)Cc3ccc(O)c(I)c3)CSSC[C@@H](C(=O)O)NC(=O)[C@H](CO)NC(=O)[C@H]([C@@H](C)O)NC(=O)[C@H](Cc3ccccc3)NC(=O)[C@H]([C@@H](C)O)NC2=O)cc1 [^125 I-Tyr^2-des-AA^1,5-[D-Trp^8,IAmp^9]SRIF] (H-[Tyr(3-I)]CKFF[dW][Phe(4-CH2NHiPr)]TFTSC-OH; disulfide 2-12) |  |  |  | specific binding of iodinated peptide to SSTR4 (SSTR4): did not bind; Bmax, binding to SSTR1 (SSTR1 [4]): 226±56 fmol/mg protein; specific binding of iodinated peptide to SSTR3 (SSTR3): did not bind; effect of GTPgS and pertussis toxin treatment on binding of the radioligand to SSTR1 [5]: reduced by GTPgS and pertussis toxin treatment; specific binding of iodinated peptide to SSTR2 (SSTR2): did not bind; specific binding of iodinated peptide to SSTR5 (SSTR5): did not bind
8 | [^125 I-Tyr^11 ]SRIF (AGCKNFFWKTY(125I)TSC; ends and bridges not checked; UniProt P61278 103-116, looked up, variant F11Y) |  |  |  | effect of GTPgS and pertussis toxin treatment on binding of the radioligand to SSTR1 [5]: did not diminish; also recorded: not significantly effected by GTP analogs nor pertussis toxin treatment
